Measured values as given in US20090221024A1, “T CELL ASSAYS” (ANTITOPE LIMITED, priority 2006, published 2009).

How the values were obtained:
[1] = system: CD8^+ CD25^hi depleted PBMC; experiment: T cell proliferation assay (3HTdR) with whole CD8+ depleted vs CD8+ CD25hi depleted PBMC; assay type: cell-based, human; conditions: peptides previously scored borderline or negative; SI≧2 threshold
[2] = system: CD8^+ CD25^hi T cell depleted PBMC; experiment: Timecourse T cell proliferation assay, bulk cultures of CD8+ CD25hi T cell depleted PBMC; assay type: cell-based, human
Protocol: Wild type (WT) and T cell epitope depleted peptides ([…] and […], respectively) derived from human sTNFR1 sequence were synthesized (Pepscan Systems, Leystad, Netherlands) and tested using the method of example 1 in which CD8^+ CD25^hi T cell depleted PBMC were used to compare peptides derived from sTNFR-1 for the capacity to stimulate T cell responses from twenty healthy donors. Bulk cultures were established by adding 1 ml of 2-4×10^6/ml CD8^+ CD25^hi T cell depleted PBMC in AIM V culture medium to each well of a 24 well plate (Greiner Bio-One, Frickenhausen, Germany). Each peptide was tested separately against each donor by adding 1 ml 10 μM peptide to each bulk culture (final concentration of 5 μM for a 2 ml per bulk culture). For comparison, additional bulk cultures were established for untreated and positive (KLH) controls. Replicate samples (of T blasts) were removed from bulk cultures on days 6-9 and proliferation was assessed in 96 round bottom plates The data were used to assess the magnitude and kinetics of T cell responses to each peptide on days 6, 7, 8 and 9 post stimulation. In addition, the same twenty healthy donors used in the time course proliferation assay were tested for IL-2 production after 8 days culture with the TNFR1 peptides using the IL-2 Elispot assay. Elispot plates were pre-wet with 70% ethanol then coated with IL-2 capture antibody (R&D systems, Minneapolis, USA) overnight at 4° C. The plates were washed twice with PBS (Invitrogen, Paisley, UK) then blocked in 1% BSA/PBS for 2 hours at room temperature. The plates were washed in PBS prior to the addition of CD8^+ CD25^hi T cell depleted PBMC at 4×10^5 cells per well and test samples at a final concentration of 5 μM. After 7 days at 37° C./5% CO2, the plates were developed. After washing with first water then PBS, IL-2 detection antibody (R&D systems, Minneapolis, USA) in PBS/1% BSA was added for 2 hours at 37° C. After further washing with PBS, streptavadin-AP (R&D systems, Minneapolis, USA) was added for 1.5 hours, the plates washed again then BCIP/NBT chromagen (R&D systems, Minneapolis, USA) added for 30 minutes. The plates were washed with water, dried then spot counts analysed using the Immunospot Elispot analyzer, software version 3 (Cleveland, Ohio, USA).
Wild type (WT) and mutant T cell epitope depleted human sTNFR1 proteins were prepared as human Fc fusion proteins as described in WO/2004/113387 with the epitope-depleted protein having mutations I10Q, T20R, H23P, L56A, L108T, L110H and L149D. Proliferation and IL-2 Elispot assays were performed as in example 2 except that 1 ml of sTNFR1 proteins were added to a final concentration of 10 μg/ml.
Carbamazepine (Novartis Pharmaceuticals UK) and an N-acetyl iminostilbene (an analogue of carbamazepine, synthesized according to Ying et al Journal of Allergy and Clinical Immunology 2006; 118:233-241) were compared for the ability to stimulate T cell responses in a panel of healthy donors. Both compounds were tested at 25 μg/ml in separate bulk cultures for each donor according to the method of example 2. Briefly, bulk cultures were established using 2-4×10^6 CD8^+ CD25^hi T cell depleted PBMC in each well of a 24 well plate. Replicate samples (of T blasts) are removed from bulk cultures on days 5-8 and proliferation was assessed in 96 well plates. The data were used to assess the magnitude and kinetics of T cell responses to each compound.
As for example 2, a SI≧2 was used as a threshold for positive responses and data was further analyzed to determine the coefficient of variance (CV), standard deviation (SD) and significance (p<0.05) using parametric and non-parametric statistical analysis. Any given compound was considered to be immunogenic only if the response is statistically significant (p<0.05) with an SI≧2.

[3] = system: CD8^+ CD25^hi T cell depleted PBMC; experiment: IL-2 Elispot assay with CD8+ CD25hi T cell depleted PBMC; assay type: cell-based, human; conditions: 5 μM peptide, twenty healthy donors, SI threshold of 2, p<0.05; donors 3, 8 and 11
Protocol: Wild type (WT) and T cell epitope depleted peptides ([…] and […], respectively) derived from human sTNFR1 sequence were synthesized (Pepscan Systems, Leystad, Netherlands) and tested using the method of example 1 in which CD8^+ CD25^hi T cell depleted PBMC were used to compare peptides derived from sTNFR-1 for the capacity to stimulate T cell responses from twenty healthy donors. Bulk cultures were established by adding 1 ml of 2-4×10^6/ml CD8^+ CD25^hi T cell depleted PBMC in AIM V culture medium to each well of a 24 well plate (Greiner Bio-One, Frickenhausen, Germany). Each peptide was tested separately against each donor by adding 1 ml 10 μM peptide to each bulk culture (final concentration of 5 μM for a 2 ml per bulk culture). For comparison, additional bulk cultures were established for untreated and positive (KLH) controls. Replicate samples (of T blasts) were removed from bulk cultures on days 6-9 and proliferation was assessed in 96 round bottom plates The data were used to assess the magnitude and kinetics of T cell responses to each peptide on days 6, 7, 8 and 9 post stimulation. […] The plates were washed with water, dried then spot counts analysed using the Immunospot Elispot analyzer, software version 3 (Cleveland, Ohio, USA). […]

patients = conditions: known; cited from earlier work
[4] = system: autologous CD8^+ CD25^hi depleted CD4^+ T cells; experiment: Proliferation assay, antigen-pulsed monocyte derived dendritic cells plus autologous CD8+ CD25hi depleted CD4+ T cells; assay type: cell-based, human; conditions: 44 μg/ml, DC pulsed 6 hours, 7 days, SI ≧2, p<0.05, FIG. 4
Protocol: (§1) Monocytes were isolated from PBMC by adherence to tissue culture plastic (>90% CD14^+) and were cultured in 24 well plates in AIM V medium with 5% heat inactivated human AB serum (Autogen Bioclear, Caine, Wiltshire, UK) (growth medium) at an approximate density of 1×10^6 per well (24 well plate). Monocytes were incubated in growth medium containing human IL-4 (Peprotech, Rocky Hill, N.J., USA) and GM-CSF (Peprotech, Rocky Hill, N.J., USA) for 3 days. On day 3, 44 μg/ml of Betaferon (Schering AG, Berlin, Germany) were added in 0.5 ml test buffer plus 3% heat inactivated human AB serum and 25 mM (final concentration) HEPES pH 8. Control wells containing 50 μg/ml KLH or no antigen (untreated cells) were incubated in 1 ml PBS+0.01% Tween 20 plus 3% heat inactivated human AB serum (standard buffer). DC were incubated with antigen for 6 hours after which DCs were washed 6 times to remove exogenous IFN beta. […]
(§2) On day 4, autologous CD8^+ CD25^hi depleted CD4^+ T cells were isolated by negative selection from PBMC (Dynal Human CD4^+ Negative Isolation Kit, Wirral, UK) and were then added to DCs at 1×10^5 per well in both proliferation and Elispot plates. Elispot plates were incubated for 6 days before developing (as in example 2) and proliferation plates were incubated for 7 days before proliferation was measured by incorporation of 3HTdR (a 6 hour pulse at 1 μCi/well). […]

[5] = system: autologous CD8^+ CD25^hi depleted CD4^+ T cells; experiment: IL-2 Elispot assay, antigen-pulsed monocyte derived dendritic cells plus autologous CD8+ CD25hi depleted CD4+ T cells; assay type: cell-based, human; conditions: 44 μg/ml, DC pulsed 6 hours, 6 days, SI ≧2, p<0.05, FIG. 4
Protocol: as §1, §2

[6] = 5 μM peptide, donors 3, 8 and 11

Molecule: PGQTATITCSGHALG [peptide 1]
- detection of T cell epitopes after CD25^hi T cell depletion [1]: allowed detection of T cell epitopes

Molecule: HLRHCLSCSKCRKEM [WT peptide]
- peak proliferation responses, time [2, 6]: 7 days after peptide addition
- score as a T cell epitope if proliferation measured at timepoints 8 or 9 days after peptide addition [2, 6]: negative
- donors giving responses, proliferation assay ([2]; 5 μM peptide, twenty healthy donors, days 6-9, SI threshold of 2, p<0.05, donors 3, 8 and 11): three
- donors giving responses, IL-2 Elispot assay [3]: three

Molecule: GDKFVSWYQQGSGQS [compound 2]
- detection of T cell epitopes after CD25^hi T cell depletion [1]: allowed detection of T cell epitopes

Molecule: NC(=O)N1c2ccccc2C=Cc2ccccc21 [carbamazepine, Carbamazepine]
- additional responses detected on days 6 and 7 ([2]; 25 μg/ml): one
- day on which the majority of T cell responses are induced ([2]; 25 μg/ml, days 5-8): 5 days
- delayed allergic responses in patients (patients): potent inducer of delayed allergic responses

Molecule: CC(=O)N1c2ccccc2C=Cc2ccccc21 [N-acetyl iminostilbene]
- donors stimulated, compared ([2]; 25 μg/ml, days 5-8, panel of healthy donors, SI≧2, p<0.05): fewer donors than carbamazepine

B1: mutant T cell epitope depleted protein: T cell epitope depleted human sTNFR1 Fc fusion protein with mutations I10Q, T20R, H23P, L56A, L108T, L110H and L149D (protein, UniProt P19438 30-211, looked up, variant I10Q T20R H23P L56A L108T L110H L149D)
extracellular domain: LVPHLGDREKRDSVCPQGKYQHPQNNSICCRKCPKGTYLYNDCPGPGQDTDCRECESGSFTASENHARHCLSCSKCRKEMGQVEISSCTVDRDTVCGCRKNQYRHYWSENLFQCFNCSTCHNGTVHLSCQEKQNTVCTCHAGFFLRENECVSCSNCKKSDECTKLCLPQIENVKGTEDSGTT
modifications: extracellular domain human Fc fusion
- donors with significant T cell responses, proliferation assay ([2]; whole protein 10 μg/ml, timecourse, FIG. 3): not

B2: Betaferon: Betaferon (Schering AG), human interferon beta, an immunomodulatory protein (protein, UniProt P01574 22-187, looked up, variant C17S)
Interferon beta: MSYNLLGFLQRSSNFQSQKLLWQLNGRLEYCLKDRMNFDIPEEIKQLQQFQKEDAALTIYEMLQNIFAIFRQDSSSTGWNETIVENLLANVYHQINHLKTVLEEKLEKEDFTRGKLMSSLHLKRYYGRILHYLKAKEYSHCAWTIVRVEILRNFYFINRLTGYLRN
modifications: no N-terminal Met
notes: Betaferon (Schering AG), human interferon beta, an immunomodulatory protein
- donors with significant T cell responses, proliferation assay [4]: 4 out of 29
- donors with significant T cell responses, IL-2 Elispot assay [5]: 4 out of 29
